Structures can show the parent of a compound that is named as a salt. Where two headings read alike, the source gives them in different places.
Assays:
[1] = tested on: leukotriene pathway in human whole blood (LTB4 levels); experiment: Human whole blood assay (A23187-stimulated LTB4); type: cell-based; details: Homo sapiens, read-out: LTB4 IC50 1:1
Summary of the method: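 Compounds are pre-incubated 15 min at 37° Celsius in RPMI-diluted (1:1) heparinised whole blood before a 30 min A23187 stimulus (7 μg/mL). Plasma LTB4 is read by immunoassay kit, with IC50 calculated from a 4-parameter equation.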

[2] = molecular target: human FLAP (Homo sapiens (Human), UniProt P20292); experiment: FLAP binding assay (HTRF format); details: HTRF format
Summary of the method: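 HTRF ratio read-out; two independent plates, samples in duplicate on each, values averaged across plates.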

[3] = human whole blood diluted 1:1 in RPMI, A23187-stimulated LTB4
[4] = human FLAP wild type, average of two plates, duplicates
[5] = human whole blood diluted 1:1, A23187-stimulated

Sequence of human FLAP (P20292 whole entry): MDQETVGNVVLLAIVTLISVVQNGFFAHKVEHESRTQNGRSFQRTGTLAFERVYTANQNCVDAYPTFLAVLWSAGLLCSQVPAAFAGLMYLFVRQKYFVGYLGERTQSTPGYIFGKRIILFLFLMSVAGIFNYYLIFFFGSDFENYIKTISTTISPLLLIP

IC50 [1, 3] [nM]	Ki [2, 4] [nM]	IC50 [1, 5] [nM]	Ki ([2]; wild type FLAP) [nM]	Structure (SMILES)
94	36	–	–	CCS(=O)(=O)Nc1ccccc1-c1ccc(-c2cnc(N)cn2)c(F)c1 [Example 35, N-[4′-(5-Aminopyrazin-2-yl)-3′-fluorobiphenyl-2-yl]ethanesulfonamide]
–	–	191	102	N#Cc1nc(N)cnc1-c1ccc(-c2ccccc2S(=O)(=O)N2CCS(=O)(=O)CC2)cc1F [Example 704, 6-Amino-3-{2′-[(1,1-dioxidothiomorpholin-4-yl)sulfonyl]-3-fluorobiphenyl-4-yl}pyrazine-2-carbonitrile]
39	8	–	–	C[C@H](O)CNS(=O)(=O)c1ccccc1-c1ccc(-c2cnc(N)cn2)c(F)c1 [Example 98, (S)-4′-(5-aminopyrazin-2-yl)-3′-fluoro-N-(2-hydroxypropyl)-[1,1′-biphenyl]-2-sulfonamide]
39	2	–	–	CCNS(=O)(=O)c1cc(C(F)(F)F)ccc1-c1ccc(-c2cnc(N)nc2)c(F)c1 [Example 327, 4′-(2-Aminopyrimidin-5-yl)-N-ethyl-3′-fluoro-4-(trifluoromethyl)biphenyl-2-sulfonamide]
–	–	85	16	Nc1ncc(-c2ccc(-c3ccccc3Oc3cc(N4CCC4)ncn3)cc2F)cn1 [Example 540, 5-{2′-[(6-Azetidin-1-ylpyrimidin-4-yl)oxy]-3-fluorobiphenyl-4-yl}pyrimidin-2-amine]
–	–	> 10000	133	COc1cccc2nc(-c3ccc(-c4ccccc4S(=O)(=O)NC(C)(C)C)cc3F)cn12 [Example 588, N-tert-Butyl-3′-fluoro-4′-(5-methoxyimidazo[1,2-a]pyridin-2-yl)biphenyl-2-sulfonamide]
–	–	741	467	Nc1ncc(-c2ccc(-c3ccccc3Oc3ccnc(C(F)(F)F)n3)cc2F)cn1 [Example 548, 5-(3-Fluoro-2′-{[2-(trifluoromethyl)pyrimidin-4-yl]oxy}biphenyl-4-yl)pyrimidin-2-amine]
–	–	17	1	CC(C)(C)NS(=O)(=O)c1ccccc1-c1ccc(-c2nnc(N)s2)c(F)c1 [Example 438, 4′-(5-Amino-1,3,4-thiadiazol-2-yl)-N-(tert-butyl)-3′-fluoro-[1,1′-biphenyl]-2-sulfonamide]
–	–	25	1	COc1nc(-c2ccc(-c3ccccc3S(=O)(=O)NC(C)(C)C)cc2F)cnc1N [Example 433, 4′-(5-Amino-6-methoxypyrazin-2-yl)-N-tert-butyl-3′-fluorobiphenyl-2-sulfonamide]
57	10	–	–	Nc1ncc(-c2ccc(-c3ccccc3S(=O)(=O)N[C@H]3CCCC[C@@H]3O)cc2F)cn1 (racemic) [Example 260, racemic 4′-(2-Aminopyrimidin-5-yl)-3′-fluoro-N-[(trans)-2-hydroxycyclohexyl]biphenyl-2-sulfonamide]
174	11	–	–	Nc1cnc(-c2ccc(-c3ccccc3S(=O)(=O)N(CCO)CCO)cc2F)cn1 [Example 138, 4′-(5-Aminopyrazin-2-yl)-3′-fluoro-N,N-bis(2-hydroxyethyl)biphenyl-2-sulfonamide]
4460	164	–	–	COc1cc(NS(=O)(=O)c2ccccc2-c2ccc(-c3cnc(N)cn3)c(F)c2)nc(OC)n1 [Example 166, 4′-(5-Aminopyrazin-2-yl)-N-(2,6-dimethoxypyrimidin-4-yl)-3′-fluorobiphenyl-2-sulfonamide]
194	57	–	–	Nc1cnc(-c2ccc(-c3ccccc3S(=O)(=O)N3CCNCC3)cc2F)cn1 [Example 46, 5-[3-Fluoro-2′-(piperazin-1-ylsulfonyl)biphenyl-4-yl]pyrazin-2-amine]
416	4	–	–	C[C@H](NS(=O)(=O)c1ccccc1-c1ccc(-c2cnc(N)nc2)c(F)c1)C(=O)OC(C)(C)C [Example 307, tert-Butyl N-{[4′-(2-aminopyrimidin-5-yl)-3′-fluorobiphenyl-2-yl]sulfonyl}-L-alaninate]
–	–	195	37.7	Nc1cnc(-c2ccc(-c3ccccc3-c3cnc(N4CCOCC4)nc3)cc2F)cn1 [Example 850, 5-[3-Fluoro-2′-(2-morpholin-4-ylpyrimidin-5-yl)biphenyl-4-yl]pyrazin-2-amine]
–	–	6	1	CC(C)(C)NS(=O)(=O)c1ccccc1-c1ccc(-c2cnc(N)c(Cl)n2)c(F)c1 [Example 441, 4′-(5-Amino-6-chloropyrazin-2-yl)-N-tert-butyl-3′-fluorobiphenyl-2-sulfonamide]
–	–	768	246	Cc1cc(C)nc(Oc2ccccc2-c2ccc(-c3cnc(N)nc3)c(F)c2)n1 [Example 609, 5-{2′-[(4,6-Dimethylpyrimidin-2-yl)oxy]-3-fluorobiphenyl-4-yl}pyrimidin-2-amine]

IC50 [1, 3] [nM]	Ki [2, 4] [nM]	IC50 [1, 5] [nM]	Ki ([2]; wild type FLAP) [nM]	Structure (SMILES)
–	–	66	12	Cc1nccc(Oc2ccccc2-c2ccc(-c3cnc(N)cn3)c(F)c2)n1 [Example 541, 5-{3-Fluoro-2′-[(2-methylpyrimidin-4-yl)oxy]biphenyl-4-yl}pyrazin-2-amine]
–	–	13	1	Nc1cnc(-c2ccc(-c3ccc(C(F)(F)F)cc3Oc3nccc(N)n3)cc2F)cn1 [Example 556, 2-{[4′-(5-Aminopyrazin-2-yl)-3′-fluoro-4-(trifluoromethyl)biphenyl-2-yl]oxy}pyrimidin-4-amine]
30	2	–	–	Nc1cnc(-c2ccc(-c3ccccc3S(=O)(=O)NCC3(O)CCCCC3)cc2F)cn1 [Example 99, 4′-(5-Aminopyrazin-2-yl)-3′-fluoro-N-[(1-hydroxycyclohexyl)methyl]biphenyl-2-sulfonamide]
–	–	95.1	192	Nc1ncc(-c2ccc(-c3cccnc3S(=O)(=O)CC3CCOCC3)cc2F)cn1 [Example 823, 5-(2-Fluoro-4-(2-(((tetrahydro-2H-pyran-4-yl)methyl)sulfonyl)pyridine-3-yl)pyrimidin-2-amine formic acid salt]
860	217	–	–	CS(=O)(=O)c1ccccc1-c1ccc(-c2cnc(N)cn2)c(F)c1 [Example 1, 5-[3-Fluoro-2′-(methylsulfonyl)biphenyl-4-yl]pyrazin-2-amine]
4	1	–	–	Nc1cnc(-c2ccc(-c3ccccc3Sc3ccnc(N)n3)cc2F)cn1 [Example 242, 4-{[4′-(5-Aminopyrazin-2-yl)-3′-fluorobiphenyl-2-yl]sulfanyl}pyrimidin-2-amine hydrochloride]
–	–	642	280	Nc1ncc(-c2ccc(-c3ccc(C(F)(F)F)cc3C(=O)N3CCS(=O)(=O)CC3)cc2F)cn1 [Example 793, [2-[4-(2-Aminopyrimidin-5-yl)-3-fluoro-phenyl]-5-(trifluoromethyl)phenyl]-(1,1-dioxo-1,4-thiazinan-4-yl)methanone]
6	1	–	–	Nc1cnc(-c2ccc(-c3ccccc3S(=O)(=O)N3CCC(CO)CC3)cc2F)cn1 [Example 68, (1-{[4′-(5-Aminopyrazin-2-yl)-3′-fluorobiphenyl-2-yl]sulfonyl}piperidin-4-yl)methanol]
101	19	–	–	Nc1ncc(-c2ccc(-c3ccc(C(F)(F)F)cc3S(=O)(=O)N3CCNC(=O)C3)cc2F)cn1 [Example 324, 4-{[4′-(2-Aminopyrimidin-5-yl)-3′-fluoro-4-(trifluoromethyl)biphenyl-2-yl]sulfonyl}piperazin-2-one]
67	12	–	–	Nc1cc(Sc2ccccc2-c2ccc(-c3cnc(N)nc3)c(F)c2)ncn1 [Example 334, 5-{2′-[(6-Aminopyrimidin-4-yl)sulfanyl]-3-fluorobiphenyl-4-yl}pyrimidin-2-amine formate salt]
206	142	–	–	C[C@@H](CO)NS(=O)(=O)c1ccccc1-c1ccc(-c2cnc(N)nc2)c(F)c1 [Example 286, 4′-(2-Aminopyrimidin-5-yl)-3′-fluoro-N-[(1S)-2-hydroxy-1-methylethyl]biphenyl-2-sulfonamide trifluoroacetic acid salt]
7	1	–	–	CCN(CC)S(=O)(=O)c1ccccc1-c1ccc(-c2cnc3[nH]ccc3n2)c(F)c1 [Example 373, N,N-Diethyl-3′-fluoro-4′-(5H-pyrrolo[2,3-b]pyrazin-2-yl)biphenyl-2-sulfonamide]
69	21	–	–	Nc1cnc(-c2ccc(-c3ccccc3S(=O)(=O)N3CCNC(=O)C3)cc2F)cn1 [Example 66, 4-{[4′-(5-Aminopyrazin-2-yl)-3′-fluorobiphenyl-2-yl]sulfonyl}piperazin-2-one]
128	4	–	–	Nc1cnc(-c2ccc(-c3ccccc3SCCNC(=O)c3ccccc3)cc2F)cn1 [Example 204, N-(2-{[4′-(5-Aminopyrazin-2-yl)-3′-fluorobiphenyl-2-yl]sulfanyl}ethyl)benzamide]
19	1	–	–	C[C@H](NS(=O)(=O)c1ccccc1-c1ccc(-c2cnc(N)cn2)c(F)c1)C(O)c1ccccc1 (stereo in doubt) [Example 83, 4′-(5-Aminopyrazin-2-yl)-3′-fluoro-N-[(1S,2R)-2-hydroxy-1-methyl-2-phenylethyl]biphenyl-2-sulfonamide]
–	–	1410	113	COc1ccccc1-c1ccc(-c2cnc(N)cn2)c(F)c1 [Example 473, 5-(3-Fluoro-2′-methoxybiphenyl-4-yl)pyrazin-2-amine]
–	–	583	200	Nc1ncc(-c2ccc(-c3ccc(C(F)(F)F)cc3Oc3ncccn3)cn2)cn1 [Example 564, 5-{5-[2-(Pyrimidin-2-yloxy)-4-(trifluoromethyl)phenyl]pyrridn-2-yl}pyrimidin-2-amine]

Source: US9079866B2, “Flap modulators” (JANSSEN PHARMACEUTICA NV, priority 2013, dated 2015)
